According to patent US20220265769A1, “COMPOSITIONS AND METHODS OF TREATMENT FOR BREAST CANCER INVOLVING A NOVEL CAPER?-MLL1 COMPLEX” (Geisinger Health, priority 2019, published 2022):

Legend:
[1] = system: breast cancer cell subtypes; experiment: Total cell number and viability of an array of breast cancer cell subtypes treated with synthetic RRM3-derived peptides; format: cell-based, human; conditions: synthetic peptides at 5 μM; for proliferation (total cell number) of breast cancer cell subtypes: 72 hours
Method: FIG. 10. RRM3-derived CPPs disrupts growth of multiple breast cancer cell subtypes but has no effect on normal cells. A) Schematic of RRM3 amino acids 441-510 (SEQ ID NO: 13). B) Bars represent the peptide regions used to generate CPPs based on deletion results in FIG. 31. C) Amino acid sequences of synthetic peptide: Penetratin, His tag and RRM3-derived peptide. D) Representative images of crystal violet stained breast cancer cells as listed at top, taken after 72 hours days of treatment with synthetic peptides at 5 μM. E) Quantification of total cell numbers of different cell types and peptide (1-5) treatments.
FIG. 31. Key structural domains mediate the RRM3-MLL1 interaction. A) Modeling of RRM3 domain structure (amino acids: 441 to 510; SEQ ID NO: 13) using the SWISS MODEL tool and conserved domains by sequence alignment with vertebrate RRM-domaining proteins (https://www.ncbi.nlm.nih.gov/Structure/cdd/cddsrv.cgi?uid=240731) B) Top: anti-MLL1 IB to test the interaction between MLL1 and myc-tagged, deletion mutant RRM3 proteins in HEK293 cells. Bottom: IB/IP to quantitate myc-tagged proteins in lysates from HEK293 overexpressing wild type and microdeleted RRM3 domains. C) Bar graphs quantitating % viable cells after peptide treatments (peptides are numbered 1-5 as in FIG. 10) for 4 days. […] Lanes are labeled with peptide names. Arrowhead highlights signal from the entry of CPP. […] F) Anti-RBM39 immunoprecipitated samples from Neg.CPP (SEQ ID NO: 12), CPP-L491-L508 (SEQ ID NO: 24), CPP-G441-V460 (SEQ ID NO: 20), and CPP-E445-V476 (SEQ ID NO: 15) treated T47D lysates assayed by immunoblotting with antibodies against MLL1, ASH2L, RbBP5. […] G) Representative co-immunoprecipitations to show the interaction between RBM39 and its RBP interactors in Neg.CPP and CPP-E445-V476 treated T47D cell lysates. […] Immunoprecipitations and Immunoblots assaying RBM39-MLL1 interaction in neg.CPP and CPP-E445-V476 treated T47D, HCC1954, MDA-MB231 and ZR7530 cells show reduced interaction between MLL1 and RBM39 in vivo. (arrows highlight decreased interaction).
(§1) Cell counts for CPP treatments: Cells were plated in 6-well dishes and incubated with 5 μM concentration of peptides. At days noted, cells were trypsinized and counted using a hemocytometer.
Generation of synthetic peptides from the RRM3 domain: RRM3-derived peptides were commercially synthesized by Abm at purity >80%. Peptides were dissolved in 1λPBS at 1 mg/ml and used at 5 μM in low serum (1%) RPMI media.
As per UniProt, RRM3 spans amino acids (aa) 445-508 (SEQ ID NO: 34) and SWISS tool predicts 2 α helices and 4 β sheets that are conserved in vertebrate RRM-containing proteins (FIG. 31A). A series of myc-tag microdeleted constructs were designed to identify regions required for MLL1 binding. […]

[2] = biological target: T1, RBM39 (CAPERα)/MLL1 complex (Homo sapiens, UniProt Q03164); experiment: Anti-RBM39 co-immunoprecipitation of MLL1 complex members from peptide-treated breast cancer cell lysates; format: cell-based
T1 construct: endogenous in cells; lines from ATCC
T1 sequence (Q03164 1-2718 limits assumed): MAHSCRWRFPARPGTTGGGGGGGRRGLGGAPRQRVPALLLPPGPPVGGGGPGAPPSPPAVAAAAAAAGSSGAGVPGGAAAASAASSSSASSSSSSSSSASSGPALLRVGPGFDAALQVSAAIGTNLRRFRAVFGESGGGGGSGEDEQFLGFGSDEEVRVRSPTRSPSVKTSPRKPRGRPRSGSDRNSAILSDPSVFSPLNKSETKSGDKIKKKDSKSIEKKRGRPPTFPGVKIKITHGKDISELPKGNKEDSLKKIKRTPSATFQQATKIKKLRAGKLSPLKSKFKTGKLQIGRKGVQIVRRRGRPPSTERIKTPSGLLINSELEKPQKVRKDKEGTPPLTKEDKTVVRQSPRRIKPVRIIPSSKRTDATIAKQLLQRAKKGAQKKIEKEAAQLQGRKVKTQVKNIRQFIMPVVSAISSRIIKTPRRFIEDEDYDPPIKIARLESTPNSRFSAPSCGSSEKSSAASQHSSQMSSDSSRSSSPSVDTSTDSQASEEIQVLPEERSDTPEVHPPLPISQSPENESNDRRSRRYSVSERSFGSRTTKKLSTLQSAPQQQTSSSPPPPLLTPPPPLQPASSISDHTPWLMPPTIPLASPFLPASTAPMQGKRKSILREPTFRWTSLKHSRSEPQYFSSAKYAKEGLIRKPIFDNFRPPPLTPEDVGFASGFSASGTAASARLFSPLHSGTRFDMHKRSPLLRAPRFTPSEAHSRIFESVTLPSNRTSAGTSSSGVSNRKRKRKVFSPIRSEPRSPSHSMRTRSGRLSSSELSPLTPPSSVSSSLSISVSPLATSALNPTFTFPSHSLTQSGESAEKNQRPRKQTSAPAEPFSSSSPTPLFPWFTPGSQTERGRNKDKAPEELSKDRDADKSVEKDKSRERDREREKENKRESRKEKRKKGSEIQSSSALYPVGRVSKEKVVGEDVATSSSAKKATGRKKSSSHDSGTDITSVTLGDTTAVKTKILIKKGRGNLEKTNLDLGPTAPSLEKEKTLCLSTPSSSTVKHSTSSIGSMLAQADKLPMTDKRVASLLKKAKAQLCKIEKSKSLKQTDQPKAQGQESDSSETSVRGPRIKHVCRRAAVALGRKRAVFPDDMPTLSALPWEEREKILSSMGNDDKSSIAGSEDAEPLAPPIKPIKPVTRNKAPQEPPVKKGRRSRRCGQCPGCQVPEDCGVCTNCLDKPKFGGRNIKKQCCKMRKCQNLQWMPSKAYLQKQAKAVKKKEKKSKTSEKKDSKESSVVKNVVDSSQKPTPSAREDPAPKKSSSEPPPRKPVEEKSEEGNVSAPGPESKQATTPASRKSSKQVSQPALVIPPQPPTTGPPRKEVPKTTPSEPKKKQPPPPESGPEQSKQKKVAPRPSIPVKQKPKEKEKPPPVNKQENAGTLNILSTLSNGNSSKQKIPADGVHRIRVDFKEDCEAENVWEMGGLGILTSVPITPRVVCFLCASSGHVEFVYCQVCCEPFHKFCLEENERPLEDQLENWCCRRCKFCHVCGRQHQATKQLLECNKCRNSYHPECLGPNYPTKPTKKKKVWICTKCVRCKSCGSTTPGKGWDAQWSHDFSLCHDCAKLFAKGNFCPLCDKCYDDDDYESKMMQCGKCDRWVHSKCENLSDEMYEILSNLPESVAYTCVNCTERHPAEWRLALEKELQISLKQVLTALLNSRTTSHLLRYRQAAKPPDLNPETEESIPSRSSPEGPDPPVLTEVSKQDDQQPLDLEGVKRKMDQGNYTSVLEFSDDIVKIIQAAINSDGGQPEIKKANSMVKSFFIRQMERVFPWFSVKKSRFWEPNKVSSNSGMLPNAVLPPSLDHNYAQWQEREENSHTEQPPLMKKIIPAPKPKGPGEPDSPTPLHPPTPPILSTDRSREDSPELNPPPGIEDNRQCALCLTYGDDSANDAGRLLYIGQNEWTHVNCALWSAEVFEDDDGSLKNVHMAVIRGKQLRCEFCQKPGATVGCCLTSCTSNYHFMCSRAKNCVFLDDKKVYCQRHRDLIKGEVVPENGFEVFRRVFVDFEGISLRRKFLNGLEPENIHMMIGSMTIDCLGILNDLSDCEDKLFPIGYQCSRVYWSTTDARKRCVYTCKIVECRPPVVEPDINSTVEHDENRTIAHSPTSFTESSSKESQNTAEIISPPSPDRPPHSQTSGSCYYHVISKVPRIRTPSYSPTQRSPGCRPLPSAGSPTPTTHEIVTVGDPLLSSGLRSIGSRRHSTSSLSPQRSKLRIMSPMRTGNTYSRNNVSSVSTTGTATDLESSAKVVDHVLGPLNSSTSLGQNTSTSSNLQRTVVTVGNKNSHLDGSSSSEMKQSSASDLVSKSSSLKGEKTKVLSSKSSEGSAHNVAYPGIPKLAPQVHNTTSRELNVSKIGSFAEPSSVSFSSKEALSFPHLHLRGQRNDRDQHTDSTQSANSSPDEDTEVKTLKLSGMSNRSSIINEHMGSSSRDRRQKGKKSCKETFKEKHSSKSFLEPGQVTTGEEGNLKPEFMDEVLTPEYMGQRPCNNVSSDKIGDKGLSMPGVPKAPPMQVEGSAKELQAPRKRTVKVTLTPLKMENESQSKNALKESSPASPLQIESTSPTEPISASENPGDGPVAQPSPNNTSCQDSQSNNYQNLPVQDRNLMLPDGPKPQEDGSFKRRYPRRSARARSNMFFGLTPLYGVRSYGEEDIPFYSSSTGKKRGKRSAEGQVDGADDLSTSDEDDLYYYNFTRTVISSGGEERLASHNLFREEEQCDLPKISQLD
T1 sequence (Q03164 2719-3969 limits assumed): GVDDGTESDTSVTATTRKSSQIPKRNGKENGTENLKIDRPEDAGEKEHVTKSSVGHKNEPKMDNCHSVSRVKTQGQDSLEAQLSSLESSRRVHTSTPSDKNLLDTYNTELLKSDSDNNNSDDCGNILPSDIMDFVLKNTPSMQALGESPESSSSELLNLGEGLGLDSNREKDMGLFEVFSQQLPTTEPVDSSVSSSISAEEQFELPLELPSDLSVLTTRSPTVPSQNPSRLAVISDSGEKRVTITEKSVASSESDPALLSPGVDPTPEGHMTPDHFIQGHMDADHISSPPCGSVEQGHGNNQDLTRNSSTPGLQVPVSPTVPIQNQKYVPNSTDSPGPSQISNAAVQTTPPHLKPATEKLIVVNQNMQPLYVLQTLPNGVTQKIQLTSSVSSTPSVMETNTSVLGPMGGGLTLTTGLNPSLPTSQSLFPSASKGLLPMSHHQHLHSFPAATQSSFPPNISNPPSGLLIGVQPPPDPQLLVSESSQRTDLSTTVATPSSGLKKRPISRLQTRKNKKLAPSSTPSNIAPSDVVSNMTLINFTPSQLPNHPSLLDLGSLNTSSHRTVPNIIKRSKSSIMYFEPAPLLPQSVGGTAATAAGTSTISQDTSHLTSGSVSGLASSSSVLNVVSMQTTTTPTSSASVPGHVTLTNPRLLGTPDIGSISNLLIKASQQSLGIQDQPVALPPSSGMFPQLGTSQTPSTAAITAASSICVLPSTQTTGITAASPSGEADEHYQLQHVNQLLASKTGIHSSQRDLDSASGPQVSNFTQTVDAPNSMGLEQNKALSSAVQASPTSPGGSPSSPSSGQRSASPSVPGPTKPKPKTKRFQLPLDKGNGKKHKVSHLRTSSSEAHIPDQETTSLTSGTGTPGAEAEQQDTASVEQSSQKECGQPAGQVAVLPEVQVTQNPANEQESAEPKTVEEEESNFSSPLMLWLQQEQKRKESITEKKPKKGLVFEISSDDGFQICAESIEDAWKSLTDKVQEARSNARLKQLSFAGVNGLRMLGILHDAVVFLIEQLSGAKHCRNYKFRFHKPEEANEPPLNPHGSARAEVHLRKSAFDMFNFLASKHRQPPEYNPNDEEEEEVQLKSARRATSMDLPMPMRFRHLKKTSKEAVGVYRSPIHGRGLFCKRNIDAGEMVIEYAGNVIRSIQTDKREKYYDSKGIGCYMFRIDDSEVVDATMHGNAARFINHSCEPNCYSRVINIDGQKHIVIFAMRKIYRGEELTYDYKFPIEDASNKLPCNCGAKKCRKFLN
T1 sequence (Q15291 whole entry partner): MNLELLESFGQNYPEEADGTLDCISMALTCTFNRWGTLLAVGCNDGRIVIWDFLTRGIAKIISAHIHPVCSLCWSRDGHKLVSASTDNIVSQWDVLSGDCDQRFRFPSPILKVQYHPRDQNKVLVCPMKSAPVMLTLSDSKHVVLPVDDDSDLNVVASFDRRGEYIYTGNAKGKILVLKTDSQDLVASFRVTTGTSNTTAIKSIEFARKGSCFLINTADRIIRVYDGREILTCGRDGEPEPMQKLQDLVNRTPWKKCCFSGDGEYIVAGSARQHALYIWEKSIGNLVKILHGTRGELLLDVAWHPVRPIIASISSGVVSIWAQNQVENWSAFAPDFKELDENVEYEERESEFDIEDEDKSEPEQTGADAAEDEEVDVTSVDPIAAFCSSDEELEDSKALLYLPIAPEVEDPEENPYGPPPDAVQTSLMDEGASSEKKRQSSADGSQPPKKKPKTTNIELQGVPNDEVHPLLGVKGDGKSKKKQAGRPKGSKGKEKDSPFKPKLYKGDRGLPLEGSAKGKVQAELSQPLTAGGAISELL
Source text: (§2) FIG. 31. Key structural domains mediate the RRM3-MLL1 interaction. A) Modeling of RRM3 domain structure (amino acids: 441 to 510; SEQ ID NO: 13) using the SWISS MODEL tool and conserved domains by sequence alignment with vertebrate RRM-domaining proteins (https://www.ncbi.nlm.nih.gov/Structure/cdd/cddsrv.cgi?uid=240731) B) Top: anti-MLL1 IB to test the interaction between MLL1 and myc-tagged, deletion mutant RRM3 proteins in HEK293 cells. Bottom: IB/IP to quantitate myc-tagged proteins in lysates from HEK293 overexpressing wild type and microdeleted RRM3 domains. C) Bar graphs quantitating % viable cells after peptide treatments (peptides are numbered 1-5 as in FIG. 10) for 4 days. […] Lanes are labeled with peptide names. Arrowhead highlights signal from the entry of CPP. […] F) Anti-RBM39 immunoprecipitated samples from Neg.CPP (SEQ ID NO: 12), CPP-L491-L508 (SEQ ID NO: 24), CPP-G441-V460 (SEQ ID NO: 20), and CPP-E445-V476 (SEQ ID NO: 15) treated T47D lysates assayed by immunoblotting with antibodies against MLL1, ASH2L, RbBP5. […] G) Representative co-immunoprecipitations to show the interaction between RBM39 and its RBP interactors in Neg.CPP and CPP-E445-V476 treated T47D cell lysates. […]

[3] = biological target: T2, RBM39 and RNA binding proteins (RBPs) (Homo sapiens, UniProt Q14498); experiment: Co-immunoprecipitation of RBM39 and its RBP interactors in peptide-treated T47D cell lysates; format: cell-based; conditions: versus Neg.CPP
T2 construct: endogenous in cells; host or cells: T47D
T2 sequence (Q14498 2-530 limits assumed): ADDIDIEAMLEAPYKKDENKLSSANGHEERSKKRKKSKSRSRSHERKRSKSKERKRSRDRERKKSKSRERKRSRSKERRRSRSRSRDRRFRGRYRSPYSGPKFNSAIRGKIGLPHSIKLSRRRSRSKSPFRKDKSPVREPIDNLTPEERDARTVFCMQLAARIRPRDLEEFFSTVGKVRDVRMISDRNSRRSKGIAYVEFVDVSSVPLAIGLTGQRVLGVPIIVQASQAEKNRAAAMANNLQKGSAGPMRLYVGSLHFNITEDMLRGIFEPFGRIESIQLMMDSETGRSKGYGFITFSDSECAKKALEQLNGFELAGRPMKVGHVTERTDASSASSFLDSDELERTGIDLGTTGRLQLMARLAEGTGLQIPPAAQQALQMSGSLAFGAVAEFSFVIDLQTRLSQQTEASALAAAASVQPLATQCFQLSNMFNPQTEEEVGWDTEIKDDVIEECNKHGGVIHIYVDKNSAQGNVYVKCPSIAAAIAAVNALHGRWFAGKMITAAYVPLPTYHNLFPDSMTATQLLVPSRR
Source text: as §2

[4] = system: PME cells; experiment: Crystal violet assay / cell counts of primary mammary epithelial cells (PMEs) treated with cell penetrating peptides; format: cell-based, human; conditions: synthetic peptides at 5 μM
Method: Crystal violet assay/optical density method of cell quantitation: 5×10^5 cells were plated per well in 6-well tissue culture plates. At times indicated cells were washed with PBS and fixed for 10 minutes in a 10% formalin solution. Cells were then rinsed with distilled water and subsequently stained with 100 μl 0.1% crystal violet solution for 30 min. Stained cells were rinsed with water to remove the excess traces of the staining solution. Cell-associated crystal violet dye was extracted with 500 μl of 10% acetic acid. Aliquots were collected and optical density was measured at 590 nm wavelength. Each point on the curve shown represents 3 independent wells.
as §1
Whether recombinant RRM3 conjugated with the Penetratin cell penetrating peptide (Dupont E, et al., Methods Mol Biol. 1324:29-37 (2015)) (FIGS. 9A, B) affects growth of T47D and PME cells was tested. Equal numbers of PME and T47D cells were seeded and incubated with 5 μM peptide in media for 72 hrs. […] Compared to CPP-coupled RRM3, CPP-RRM1 and RRM3 had no effect (FIGS. 9H-N). […]

Row | Substance | proliferation (total cell number) of breast cancer cell subtypes [1] | viability (% viable cells) of breast cancer cell subtypes ([1]; 4 days) | endogenous interaction between RBM39 and MLL1 ([2]; T47D, HCC1954, MDA-MB231 and ZR7530 cells, versus neg.CPP) | interaction between RBM39 and MLL1 complex members (MLL1, ASH2L, RbBP5) ([2]; treated T47D lysates, anti-RBM39 immunoprecipitation) | interaction of RBM39 with RBPs [3] | effect on PMEs / normal cells (proliferation and viability) [4]
1 | CPP-E445-V476: synthetic RRM3-derived peptide E445-V476 with Penetratin and His tags (SEQ ID NO: 15; with His tag SEQ ID NO: 14) (RQIKIWFQNRRMKWKKGGEIKDDVIEECNKHGGVIHIYVDKNSAQGNVYVHHHHHH; RRM3-derived synthetic sequence) | pronounced effects on all subtypes | pronounced effects on all subtypes | disrupts the endogenous interaction | reduced the interaction | did not affect the interaction | no effect
2 | RRM3 E445-V476: RRM3 E445-V476 peptide in the absence of Penetratin, negative control (SEQ ID NO: 2) (EIKDDVIEECNKHGGVIHIYVDKNSAQGNVYV; listed as Homo sapiens) | no effect |  |  |  |  | 
3 | CPP-G441-V460: synthetic RRM3-derived peptide G441-V460 with Penetratin and His tags (SEQ ID NO: 20; with His tag SEQ ID NO: 21) (RQIKIWFQNRRMKWKKGGGWDTEIKDDVIEECNKHGGVHHHHHH; RRM3-derived synthetic sequence) | affected some Luminal and HER2+ subtypes |  |  |  |  | 
